Experimental data: ChEMBL document CHEMBL1126346, “C-linked pyrazole biaryl tetrazoles as antagonists of angiotensin II” (1992)
Activity calls are given as the source filed them. The calls are words filed in the database; no cut-off is given here.

Assays:
[1] = target: T1, Type-1 angiotensin II receptor (Oryctolagus cuniculus) (UniProt P34976); assay: In vitro inhibition of ATII induced contractions of the isolated rabbit aorta.
T1 sequence (whole entry): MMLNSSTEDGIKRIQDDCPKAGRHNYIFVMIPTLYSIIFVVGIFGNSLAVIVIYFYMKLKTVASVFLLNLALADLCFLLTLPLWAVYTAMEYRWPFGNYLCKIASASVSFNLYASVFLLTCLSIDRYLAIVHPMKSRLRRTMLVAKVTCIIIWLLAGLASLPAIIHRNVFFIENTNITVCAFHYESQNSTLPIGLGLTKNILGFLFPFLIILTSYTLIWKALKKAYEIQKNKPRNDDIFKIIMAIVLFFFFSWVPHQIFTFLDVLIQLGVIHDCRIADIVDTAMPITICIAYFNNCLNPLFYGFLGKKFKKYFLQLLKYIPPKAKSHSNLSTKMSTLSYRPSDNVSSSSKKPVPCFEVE

Rattus norvegicus [2] = assay: Effect on diastolic blood pressure of hypertensive rats 1 hour following 1 mg/kg p.o. administration.; assay type: functional, Artery; settings: route oral
Rattus norvegicus [3] = assay: Effect on diastolic blood pressure of hypertensive rats 3 hours following 1 mg/kg p.o. administration.; assay type: functional, Artery; settings: route oral
Rattus norvegicus [4] = assay: Effect on diastolic blood pressure of hypertensive rats 24 hours following 1 mg/kg p.o. administration.; assay type: functional, Artery; settings: route oral
Rattus norvegicus [5] = assay: Effect on diastolic blood pressure of hypertensive rats 48 hours following 1 mg/kg p.o. administration.; assay type: functional, Artery; settings: route oral
Rattus norvegicus [6] = assay: Effect on diastolic blood pressure of hypertensive rats 5 hours following 1 mg/kg p.o. administration.; assay type: functional, Artery; settings: route oral
Rattus norvegicus [7] = assay: Effect on diastolic blood pressure of hypertensive rats 7 hours following 1 mg/kg p.o. administration.; assay type: functional, Artery; settings: route oral
Rattus norvegicus [8] = assay: Effect on diastolic blood pressure of hypertensive rats immediately following 1 mg/kg p.o. administration.; assay type: functional, Artery; settings: route oral
Rattus norvegicus [9] = species on record: Rattus norvegicus; assay: Effect on diastolic blood pressure of hypertensive rats; Inactive; assay type: functional, organism-based; settings: Artery

Row | pKB [1] | SMILES | other results
1 | 7.5 | CCCCc1nn(CC)c(C(=O)NC)c1Cc1ccc(-c2ccccc2-c2nn[nH]n2)cc1 | –
2 | 7 | CCCCc1c(Cc2ccc(-c3ccccc3-c3nn[nH]n3)cc2)c(COC)nn1CC(F)(F)F | –
3 | 10.5 | CCCCc1nn(CC2CC2)c(C(=O)O)c1Cc1ccc(-c2ccccc2-c2nn[nH]n2)cc1 | Blood pressure (Rattus norvegicus [2]): 145 mmHg; Blood pressure (Rattus norvegicus [3]): 115 mmHg; Blood pressure (Rattus norvegicus [4]): 97 mmHg; Blood pressure (Rattus norvegicus [5]): 130 mmHg; Blood pressure (Rattus norvegicus [6]): 95 mmHg; Blood pressure (Rattus norvegicus [7]): 95 mmHg; Blood pressure (Rattus norvegicus [8]): 150 mmHg
4 | 10.9 | CCCCc1nn(C2CCC2)c(C(=O)O)c1Cc1ccc(-c2ccccc2-c2nn[nH]n2)cc1 | Blood pressure (Rattus norvegicus [9]): inactive
5 | 7.7 | CCCCc1c(Cc2ccc(-c3ccccc3-c3nn[nH]n3)cc2)c(C(=O)O)nn1CC(F)(F)F | –
6 | 8 | CCCCc1nn(CC)c(C(=O)OCC)c1Cc1ccc(-c2ccccc2-c2nn[nH]n2)cc1 | –
7 | 10 | CCCCc1nn(CCCC)c(C(=O)O)c1Cc1ccc(-c2ccccc2-c2nn[nH]n2)cc1 | –
8 | 9.8 | CCCCc1nn(CC)c(C(=O)O)c1Cc1ccc(-c2ccccc2-c2nn[nH]n2)cc1 | –
9 | 9.8 | CCCCc1nn(CC(F)(F)F)c(C(=O)O)c1Cc1ccc(-c2ccccc2-c2nn[nH]n2)cc1 | –
10 | 11 | CCCCc1nn(CC(C)C)c(C(=O)O)c1Cc1ccc(-c2ccccc2-c2nn[nH]n2)cc1 | –
11 | 8 | CCCCc1c(Cc2ccc(-c3ccccc3-c3nn[nH]n3)cc2)c(C(=O)O)nn1CCCC | –
12 | 8 | CCCCc1nn(CC)c(C(=O)O)c1Cc1ccc(-c2ccccc2NS(=O)(=O)C(F)(F)F)cc1 | –
13 | 10.6 | CCCCc1nn(CC(C)(C)C)c(C(=O)O)c1Cc1ccc(-c2ccccc2-c2nn[nH]n2)cc1 | –
14 | 8 | CCCCc1c(Cc2ccc(-c3ccccc3-c3nn[nH]n3)cc2)c(C(=O)O)nn1C(C)C | –
15 | 7 | CCCCc1nn(CC(F)(F)F)c(COC)c1Cc1ccc(-c2ccccc2-c2nn[nH]n2)cc1 | –
16 | 8 | CCCCc1nn(CC)c(CO)c1Cc1ccc(-c2ccccc2-c2nn[nH]n2)cc1 | –
17 | 10 | CCCCc1nn(C(C)C)c(C(=O)O)c1Cc1ccc(-c2ccccc2-c2nn[nH]n2)cc1 | –
18 | 9.8 | CCCCc1nn(C)c(C(=O)O)c1Cc1ccc(-c2ccccc2-c2nn[nH]n2)cc1 | –
19 | 8 | CCCCc1nn(CC)c(C(=O)O)c1Cc1ccc(-c2ccccc2C(=O)O)cc1 | –
20 | 10.5 | CCCCc1nn(CCC)c(C(=O)O)c1Cc1ccc(-c2ccccc2-c2nn[nH]n2)cc1 | –
21 | 8.8 | CCCCc1n[nH]c(C(=O)O)c1Cc1ccc(-c2ccccc2-c2nn[nH]n2)cc1 | –
